Assay results: patent US4517197A, “-N-substituted phenyl-5-methoxymethyl-2-oxazolidinones and pharmaceutical compositions containing same” (Delalande S.A., priority 1980, dated 1985)

Experiments:
[1] = test system: generalized trembling caused by dl-5-hydroxytryptophane; test: Test A: potentiation in mice of generalized trembling caused by intraperitoneal injection of dl-5-hydroxytryptophane; type: in vivo; conditions: Mus musculus, po, dl-5-hydroxytryptophane 200 mg/kg intraperitoneal, read-out: Test A ED 50
Protocol: Test A: potentiation in mice of generalized trembling caused by an intraperitoneal injection (200 mg/kg) of dl-5-hydroxytryptophane, according to the procedure described by Gouret C. and Raynaud G. in J. Pharmacol. (Paris) (1974), 5, 231.

[2] = test system: ptosis after reserpine; test: Test B: antagonism of ptosis observed an hour after intravenous injection of reserpine in mice; type: in vivo; conditions: Mus musculus, po, ptosis an hour after reserpine 2 mg/kg intravenous, read-out: Test B ED 50
Protocol: Test B: antagonism with respect to ptosis observed an hour after an intravenous injection (2 mg/kg) of reserpine in mice according to the procedure described by Gouret C. and Thomas J. in J. Pharmacol. (Paris), (1973), 4, 401.

[3] = Toxicity (mice); conditions: mouse, in vivo, po, read-out: Toxicity (mice) LD 50

| Compound | ED50 [1] [mg/kg] | ED50 [2] [mg/kg] | LD50 [3] [mg/kg] |
| --- | --- | --- | --- |
| Cc1cccc(N2CC(CO)OC2=O)c1 (centres unmarked) [TOLOXATONE, reference compound] | 60 | 50 | – |
| COCC1CN(c2ccc(OCCC(C)=O)cc2)C(=O)O1 (centres unmarked) [compound 238] | 1.9 | 1.1 | > 1000 |
| COCC1CN(c2ccc(OCCc3cccc(Cl)c3)cc2)C(=O)O1 (centres unmarked) [compound 264] | 2.8 | 3 | > 1000 |
| COCC1CN(c2ccc(OCCc3cccc(C#N)c3)cc2)C(=O)O1 (centres unmarked) [compound 267] | 1.8 | 1.3 | > 1000 |
| COCC1CN(c2ccc(-c3ccc(Cl)cc3)cc2)C(=O)O1 (centres unmarked) [compound 269] | 1.7 | 1.2 | > 1000 |
| COCC1CN(c2ccc(CC(=O)c3cccc(C#N)c3)cc2)C(=O)O1 (centres unmarked) [compound 270] | 0.2 | 0.2 | > 1000 |
| COCC1CN(c2ccc(CCc3cccc(Cl)c3)cc2)C(=O)O1 (centres unmarked) [compound 271] | 4.1 | 3.8 | > 1000 |
| COCC1CN(c2ccc(CCc3cccc(C#N)c3)cc2)C(=O)O1 (centres unmarked) [compound 272] | 0.5 | 0.4 | > 1000 |
| COCC1CN(c2ccc(COc3cccc(Cl)c3)cc2)C(=O)O1 (centres unmarked) [compound 273] | 5.9 | 3.4 | > 1000 |
| COCC1CN(c2ccc(CC(=O)c3cccc(Cl)c3)cc2)C(=O)O1 (centres unmarked) [compound 274] | 1.2 | 0.9 | > 1000 |
| COCC1CN(c2ccc(COc3cccc(C#N)c3)cc2)C(=O)O1 (centres unmarked) [compound 275] | 0.6 | 0.3 | > 1000 |
| COCC1CN(c2ccc(C#Cc3cccc(Cl)c3)cc2)C(=O)O1 (centres unmarked) [compound 277] | 1.2 | 1.7 | > 1000 |
| COCC1CN(c2ccc(C#CC3CCCCC3)cc2)C(=O)O1 (centres unmarked) [compound 281] | 1.3 | 0.6 | > 1000 |
| COCC1CN(c2ccc(C#Cc3cccc(C#N)c3)cc2)C(=O)O1 (centres unmarked) [compound 282] | 0.3 | 0.3 | > 1000 |
| COCC1CN(c2ccc(-c3cccc(C#N)c3)cc2)C(=O)O1 (centres unmarked) [compound 284] | 1.2 | 1.3 | > 1000 |
| COCC1CN(c2ccc(CCCCCC#N)cc2)C(=O)O1 (centres unmarked) [compound 289] | 0.15 | 0.2 | > 1000 |
